For one assay, the system named is Mus musculus. Briefly: Number of writhings 10 min after intracerebroventricular administration of 10 microg 3 and ip administration of naloxone (10 min before compound is administered). The class given is functional. On the technique in general: In writhing tests, fewer writhes than in controls are read as antinociception.
In the next assay the target is T1, Neprilysin (Mus musculus, UniProt Q61391).
T1 sequence (Q61391 whole entry): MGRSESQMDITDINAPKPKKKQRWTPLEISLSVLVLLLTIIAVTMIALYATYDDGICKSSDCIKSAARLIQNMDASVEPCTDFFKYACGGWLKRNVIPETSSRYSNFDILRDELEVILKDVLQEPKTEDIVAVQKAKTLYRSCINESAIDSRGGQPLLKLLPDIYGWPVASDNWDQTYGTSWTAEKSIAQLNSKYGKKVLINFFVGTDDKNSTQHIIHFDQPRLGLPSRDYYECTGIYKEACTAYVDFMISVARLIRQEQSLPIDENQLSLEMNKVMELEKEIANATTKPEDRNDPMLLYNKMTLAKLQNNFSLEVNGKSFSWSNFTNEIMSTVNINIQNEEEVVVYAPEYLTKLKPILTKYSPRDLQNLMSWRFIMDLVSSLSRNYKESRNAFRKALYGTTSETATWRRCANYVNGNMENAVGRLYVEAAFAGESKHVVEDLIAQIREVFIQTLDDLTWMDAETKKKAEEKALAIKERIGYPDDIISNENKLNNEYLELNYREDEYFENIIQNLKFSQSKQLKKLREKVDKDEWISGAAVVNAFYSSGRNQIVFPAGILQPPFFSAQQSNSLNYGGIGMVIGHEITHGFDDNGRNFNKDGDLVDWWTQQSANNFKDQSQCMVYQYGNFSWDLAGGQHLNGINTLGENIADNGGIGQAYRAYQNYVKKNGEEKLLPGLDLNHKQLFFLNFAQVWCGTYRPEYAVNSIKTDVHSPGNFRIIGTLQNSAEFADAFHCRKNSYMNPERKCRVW

Assay [1] has as its target T2, Angiotensin-converting enzyme (Mus musculus, UniProt P09470).
T2 sequence (P09470 whole entry): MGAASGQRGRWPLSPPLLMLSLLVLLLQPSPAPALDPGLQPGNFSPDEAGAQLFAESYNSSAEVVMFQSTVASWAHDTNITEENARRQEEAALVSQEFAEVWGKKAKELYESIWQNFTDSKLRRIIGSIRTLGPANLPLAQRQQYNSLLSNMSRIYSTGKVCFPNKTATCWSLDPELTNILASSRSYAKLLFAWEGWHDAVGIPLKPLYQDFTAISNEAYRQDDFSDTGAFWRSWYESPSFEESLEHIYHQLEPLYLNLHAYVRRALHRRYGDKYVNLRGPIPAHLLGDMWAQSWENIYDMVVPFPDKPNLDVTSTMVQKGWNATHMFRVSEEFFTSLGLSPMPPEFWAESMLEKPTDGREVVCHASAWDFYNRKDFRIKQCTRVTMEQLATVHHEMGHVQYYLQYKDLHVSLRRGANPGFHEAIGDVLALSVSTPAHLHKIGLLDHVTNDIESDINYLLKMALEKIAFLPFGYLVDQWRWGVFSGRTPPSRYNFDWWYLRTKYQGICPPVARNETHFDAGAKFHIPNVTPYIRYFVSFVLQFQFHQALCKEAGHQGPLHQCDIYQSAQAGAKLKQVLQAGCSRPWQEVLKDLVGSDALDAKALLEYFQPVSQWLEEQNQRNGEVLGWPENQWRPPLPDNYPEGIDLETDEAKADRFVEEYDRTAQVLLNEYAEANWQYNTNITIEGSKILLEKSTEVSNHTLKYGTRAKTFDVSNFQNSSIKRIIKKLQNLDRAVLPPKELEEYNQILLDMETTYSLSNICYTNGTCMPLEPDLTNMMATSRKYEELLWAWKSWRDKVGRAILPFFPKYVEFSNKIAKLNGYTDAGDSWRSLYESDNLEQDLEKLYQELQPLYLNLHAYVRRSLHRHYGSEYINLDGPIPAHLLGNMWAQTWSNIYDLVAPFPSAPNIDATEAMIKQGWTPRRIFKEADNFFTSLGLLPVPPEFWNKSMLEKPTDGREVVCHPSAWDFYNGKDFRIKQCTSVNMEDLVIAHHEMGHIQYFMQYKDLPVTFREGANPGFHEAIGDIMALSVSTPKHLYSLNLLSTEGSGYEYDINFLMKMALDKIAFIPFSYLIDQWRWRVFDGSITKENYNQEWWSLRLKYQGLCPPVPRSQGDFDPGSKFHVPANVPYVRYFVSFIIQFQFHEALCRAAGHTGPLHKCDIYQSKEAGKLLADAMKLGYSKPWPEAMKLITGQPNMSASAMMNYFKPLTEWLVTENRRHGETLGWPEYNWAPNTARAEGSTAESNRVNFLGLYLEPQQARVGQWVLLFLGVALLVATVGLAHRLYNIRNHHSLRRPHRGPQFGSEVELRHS
In words: 50% Inhibitory potency against angiotensin I converting enzyme from mouse striatum.

Assay [2] has as its target T2, Angiotensin-converting enzyme.
Description: 50% Inhibitory potency against Angiotensin I converting enzyme from mouse striatum.

Among the data in ChEMBL document CHEMBL1122448, “New carboxyalkyl inhibitors of brain enkephalinase: synthesis, biological activity, and analgesic properties” (J Med Chem, 1983) are Writhing number and IC50 values, retold here.

Structures are written as SMILES. pIC50: −log10 of the molar value. Where a SMILES comes first, the peptide text is derived from it. Some results are limits rather than exact numbers.

Broadly, the pIC50 is the IC50 on a negative log10 scale, so that one unit is a factor of ten. A low value points to a large IC50.

Description for Neprilysin: 50% Inhibitory potency against enkephalinase from mouse striatum.

In the case of `C=CCN1CC[C@]23c4c5ccc(O)c4O[C@H]2C(=O)CC[C@@]3(O)[C@H]1C5.CC(C)CC(NC(=O)C(Cc1ccccc1)C(=O)O)C(=O)O`, the Writhing number in the assay with Mus musculus was determined as 29.7. `CC(C)C[C@H](NC(=O)[C@@H](Cc1ccccc1)NCC(=O)O)C(=O)O`: on Neprilysin, the pIC50 is less than 4.00.

For `CC(C)CC(NC(=O)C(CC(=O)O)Cc1ccccc1)C(=O)O` (stereo not drawn), the pIC50 in assay [1] is 4.70; on Neprilysin, 6.10. Take `CC(C)CC(NC(=O)C(Cc1ccccc1)C(=O)O)C(=O)O` (stereo not drawn): the Writhing number in the assay on Mus musculus worked out at 29.7. Also, the negative-log IC50 (pIC50) in assay [2] is less than 3.00; against Neprilysin it was 6.15. As to `CC(C)CC(NC(=O)C(Cc1ccccc1)NCCC(=O)O)C(=O)O` (stereo not drawn), the values for the pIC50 (in assay [1]; on Neprilysin) were less than 4.00 and 4.96, respectively. On the same counts, the results for `CC(C)C[C@H](NC(=O)[C@H](Cc1ccccc1)NCC(=O)O)C(=O)O` are 5.70 and 5.70. `CC(C)C[C@@H](NC(=O)[C@@H](Cc1ccccc1)NCC(=O)O)C(=O)O`: at Neprilysin, the pIC50 is 4.74. As for `C[C@H](NC(=O)[C@H](Cc1ccccc1)NCC(=O)O)C(=O)O`, the pIC50 in assay [1] was 5.40; on Neprilysin it was 6.30. As for `CC(C)C[C@H](NC(=O)[C@@H](N)Cc1ccccc1)C(=O)O` (H-Phe-Leu-OH), the results for the pIC50 (in assay [2]; on Neprilysin) were 3.15 and 4.70, respectively. `CC(C)CC(NC(=O)[C@H](Cc1ccccc1)NCC(=O)O)C(=O)O` (single isomer, unassigned): the pIC50 against Neprilysin is 4.96. Regarding `C=CCN1CC[C@]23c4c5ccc(O)c4O[C@H]2C(=O)CC[C@@]3(O)[C@H]1C5` [NALOXONE], the Writhing number in the assay with Mus musculus amounted to 31.2.
